Source: ChEMBL document CHEMBL1201862, “PubChem BioAssay data set” (2004)
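Growth conditions: 96-well plates. Treatment: test compound, 48 hours, 5 concentrations. Analysis: linear interpolation between bracketing concentrations; unreached endpoints set to highest concentration. Here, GI50 denotes the concentration required for 50% inhibition of growth.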 Active and inactive are the calls of the source. No stated cut-off is given here; in the data, active = GI50 up to about 1.1 µM and inactive = higher.

Columns and labels:
Assay in all cases: DTP human tumour cell line panel, 48 h
[1] = tested on: HT-29
[2] = tested on: CAKI-1
[3] = tested on: Malme-3M
[4] = tested on: BT-549
[5] = tested on: NCI-H522
[6] = tested on: SK-OV-3
[7] = tested on: SF-539
[8] = tested on: SR
[9] = tested on: K562
[10] = tested on: OVCAR-8
[11] = tested on: SW-620
[12] = tested on: SF-268
[13] = tested on: SNB-19
[14] = tested on: M14
[15] = tested on: PC-3
[16] = tested on: U-251
[17] = tested on: KM12
[18] = tested on: SK-MEL-5
[19] = tested on: SK-MEL-2
[20] = tested on: SK-MEL-28
[21] = tested on: HCC 2998
[22] = tested on: SF-295
[23] = tested on: OVCAR-5
[24] = tested on: UO-31
[25] = tested on: MDA-MB-435
[26] = tested on: OVCAR-3
[27] = tested on: NCI-H23
[28] = tested on: CCRF-CEM
[29] = tested on: UACC-257
[30] = tested on: ACHN
[31] = tested on: UACC-62
[32] = tested on: EKVX
[33] = tested on: NCI/ADR-RES
[34] = tested on: RPMI-8226
[35] = tested on: IGROV-1
[36] = tested on: SNB-75
[37] = tested on: NCI-H226
[38] = tested on: OVCAR-4
[39] = tested on: DU-145
[40] = tested on: TK-10
[41] = tested on: A549
[42] = tested on: MDA-MB-231
[43] = tested on: HCT-116
[44] = tested on: HOP-92
[45] = tested on: HOP-62
[46] = tested on: MDA-N
[47] = tested on: 786-0
[48] = tested on: T47D
[49] = tested on: HL-60
[50] = tested on: Hs-578T
[51] = tested on: LOX IMVI
[52] = tested on: NCI-H460
[53] = tested on: MOLT-4
[54] = tested on: HCT-15
[55] = tested on: SN12C
[56] = tested on: MCF7
[57] = tested on: COLO 205
[58] = tested on: A498
[59] = tested on: RXF 393

O/N=C1\C=Cc2nn(-c3ccccc3)nc2\C1=N/O
GI50 [1]: 4.85 µM (inactive) | GI50 [2]: 4.27 µM (inactive) | GI50 [3]: 17.7 µM (inactive) | GI50 [4]: 3.4 µM (inactive) | GI50 [5]: 2.94 µM (inactive) | GI50 [6]: 6.35 µM (inactive) | GI50 [7]: 4.22 µM (inactive) | GI50 [8]: 3.64 µM (inactive) | GI50 [9]: 0.695 µM (active) | GI50 [10]: 3.01 µM (inactive) | GI50 [11]: 5.41 µM (inactive) | GI50 [12]: 4.27 µM (inactive) | GI50 [13]: 5.5 µM (inactive) | GI50 [14]: 5.79 µM (inactive) | GI50 [15]: 3.25 µM (inactive) | GI50 [16]: 7.16 µM (inactive) | GI50 [17]: 4.55 µM (inactive) | GI50 [18]: 2.24 µM (inactive) | GI50 [19]: 30.3 µM (inactive) | GI50 [20]: 6.21 µM (inactive) | GI50 [21]: 14.5 µM (inactive) | GI50 [22]: 4.89 µM (inactive) | GI50 [23]: 7.41 µM (inactive) | GI50 [24]: 3.15 µM (inactive) | GI50 [25]: 2.74 µM (inactive) | GI50 [26]: 4.67 µM (inactive) | GI50 [27]: 3.77 µM (inactive) | GI50 [28]: 2.42 µM (inactive) | GI50 [29]: 3.11 µM (inactive) | GI50 [30]: 2.3 µM (inactive) | GI50 [31]: 1.3 µM (inactive) | GI50 [32]: 5.41 µM (inactive) | GI50 [33]: 7.24 µM (inactive) | GI50 [34]: 3.71 µM (inactive) | GI50 [35]: 2.79 µM (inactive) | GI50 [36]: 15.6 µM (inactive) | GI50 [37]: 2.1 µM (inactive) | GI50 [38]: 5.36 µM (inactive) | GI50 [39]: 1.07 µM (active) | GI50 [40]: 17.8 µM (inactive) | GI50 [41]: 3.05 µM (inactive) | GI50 [42]: 4.06 µM (inactive) | GI50 [43]: 2.65 µM (inactive) | GI50 [44]: 8.26 µM (inactive) | GI50 [45]: 4.3 µM (inactive) | GI50 [46]: 7.96 µM (inactive) | GI50 [47]: 6.11 µM (inactive) | GI50 [48]: 5.47 µM (inactive) | GI50 [49]: 2.03 µM (inactive) | GI50 [50]: 1.85 µM (inactive) | GI50 [51]: 2.81 µM (inactive) | GI50 [52]: 3.07 µM (inactive) | GI50 [53]: 2.55 µM (inactive) | GI50 [54]: 4.38 µM | GI50 [55]: 7.24 µM (inactive) | GI50 [56]: 2.69 µM (inactive) | GI50 [57]: 3.7 µM (inactive)

CCOC(=O)c1cc2c([N+](=O)[O-])c(N)ccc2s1
GI50 [1]: > 100 µM (inactive) | GI50 [2]: > 100 µM (inactive) | GI50 [3]: > 100 µM (inactive) | GI50 [4]: > 100 µM (inactive) | GI50 [5]: > 100 µM (inactive) | GI50 [6]: > 100 µM (inactive) | GI50 [7]: > 100 µM (inactive) | GI50 [9]: > 100 µM (inactive) | GI50 [10]: > 100 µM (inactive) | GI50 [11]: > 100 µM (inactive) | GI50 [58]: > 100 µM (inactive) | GI50 [12]: > 100 µM (inactive) | GI50 [13]: > 100 µM (inactive) | GI50 [14]: > 100 µM (inactive) | GI50 [15]: > 100 µM (inactive) | GI50 [16]: > 100 µM (inactive) | GI50 [17]: > 100 µM (inactive) | GI50 [18]: > 100 µM (inactive) | GI50 [19]: > 100 µM (inactive) | GI50 [20]: > 100 µM (inactive) | GI50 [21]: > 100 µM (inactive) | GI50 [22]: > 100 µM (inactive) | GI50 [23]: > 100 µM (inactive) | GI50 [24]: > 100 µM (inactive) | GI50 [25]: > 100 µM (inactive) | GI50 [26]: > 100 µM (inactive) | GI50 [27]: > 100 µM (inactive) | GI50 [28]: > 100 µM (inactive) | GI50 [29]: > 100 µM (inactive) | GI50 [30]: > 100 µM (inactive) | GI50 [31]: > 100 µM (inactive) | GI50 [32]: 57 µM (inactive) | GI50 [33]: > 100 µM (inactive) | GI50 [34]: > 100 µM (inactive) | GI50 [35]: > 100 µM (inactive) | GI50 [36]: 72.3 µM (inactive) | GI50 [37]: > 100 µM (inactive) | GI50 [38]: > 100 µM (inactive) | GI50 [39]: > 100 µM (inactive) | GI50 [40]: > 100 µM (inactive) | GI50 [41]: > 100 µM (inactive) | GI50 [42]: > 100 µM (inactive) | GI50 [43]: > 100 µM (inactive) | GI50 [44]: > 100 µM (inactive) | GI50 [45]: > 100 µM (inactive) | GI50 [46]: > 100 µM (inactive) | GI50 [47]: > 100 µM (inactive) | GI50 [48]: > 100 µM (inactive) | GI50 [49]: > 100 µM (inactive) | GI50 [50]: > 100 µM (inactive) | GI50 [51]: > 100 µM (inactive) | GI50 [52]: > 100 µM (inactive) | GI50 [53]: > 100 µM (inactive) | GI50 [54]: > 100 µM | GI50 [55]: > 100 µM (inactive) | GI50 [56]: > 100 µM (inactive) | GI50 [59]: > 100 µM (inactive) | GI50 [57]: > 100 µM (inactive)

O=c1c2cccnc2cc(-c2ccccc2)n1CCO
GI50 [1]: > 100 µM (inactive) | GI50 [3]: > 100 µM (inactive) | GI50 [4]: > 100 µM (inactive) | GI50 [5]: > 100 µM (inactive) | GI50 [6]: > 100 µM (inactive) | GI50 [8]: > 100 µM (inactive) | GI50 [9]: > 100 µM (inactive) | GI50 [10]: > 100 µM (inactive) | GI50 [11]: > 100 µM (inactive) | GI50 [58]: > 100 µM (inactive) | GI50 [12]: 59.2 µM (inactive) | GI50 [13]: > 100 µM (inactive) | GI50 [14]: > 100 µM (inactive) | GI50 [15]: > 100 µM (inactive) | GI50 [16]: > 100 µM (inactive) | GI50 [17]: > 100 µM (inactive) | GI50 [18]: > 100 µM (inactive) | GI50 [19]: > 100 µM (inactive) | GI50 [20]: > 100 µM (inactive) | GI50 [21]: > 100 µM (inactive) | GI50 [22]: > 100 µM (inactive) | GI50 [23]: > 100 µM (inactive) | GI50 [24]: > 100 µM (inactive) | GI50 [25]: > 100 µM (inactive) | GI50 [26]: > 100 µM (inactive) | GI50 [27]: > 100 µM (inactive) | GI50 [28]: > 100 µM (inactive) | GI50 [29]: > 100 µM (inactive) | GI50 [30]: > 100 µM (inactive) | GI50 [31]: > 100 µM (inactive) | GI50 [32]: > 100 µM (inactive) | GI50 [33]: > 100 µM (inactive) | GI50 [34]: > 100 µM (inactive) | GI50 [35]: > 100 µM (inactive) | GI50 [36]: > 100 µM (inactive) | GI50 [37]: > 100 µM (inactive) | GI50 [38]: > 100 µM (inactive) | GI50 [39]: > 100 µM (inactive) | GI50 [40]: > 100 µM (inactive) | GI50 [41]: > 100 µM (inactive) | GI50 [42]: > 100 µM (inactive) | GI50 [43]: > 100 µM (inactive) | GI50 [45]: > 100 µM (inactive) | GI50 [46]: > 100 µM (inactive) | GI50 [47]: > 100 µM (inactive) | GI50 [48]: > 100 µM (inactive) | GI50 [49]: > 100 µM (inactive) | GI50 [50]: > 100 µM (inactive) | GI50 [51]: > 100 µM (inactive) | GI50 [52]: > 100 µM (inactive) | GI50 [53]: > 100 µM (inactive) | GI50 [54]: > 100 µM | GI50 [55]: > 100 µM (inactive) | GI50 [56]: > 100 µM (inactive) | GI50 [59]: > 100 µM (inactive) | GI50 [57]: > 100 µM (inactive)
